Results taken from the kinase profiling compilation of Christmann-Franck et al. (2016).

What was measured:
Test in all cases: radiometric filter-binding kinase assay
Conditions in all cases: compound 100.0 µM
MAPK13 (human) = MAPK13 (human) (UniProt O15264)
MARK2 (human) = MARK2 (human) (UniProt Q7KZI7)
IKBKE (human) = IKBKE (human) (UniProt Q14164)
CaMK1 (human) = CaMK1 (human) (UniProt Q14012)
GSK3B (human) = GSK3B (human) (UniProt P49841)
ERBB4 (human) = ERBB4 (human) (UniProt Q15303)
INSRR (human) = INSRR (human) (UniProt P14616)
BTK (human) = BTK (human) (UniProt Q06187)
MAPK1 (human) = MAPK1 (human) (UniProt P28482)
Sequence of MAPK1 (human) (P28482 whole entry, looked up): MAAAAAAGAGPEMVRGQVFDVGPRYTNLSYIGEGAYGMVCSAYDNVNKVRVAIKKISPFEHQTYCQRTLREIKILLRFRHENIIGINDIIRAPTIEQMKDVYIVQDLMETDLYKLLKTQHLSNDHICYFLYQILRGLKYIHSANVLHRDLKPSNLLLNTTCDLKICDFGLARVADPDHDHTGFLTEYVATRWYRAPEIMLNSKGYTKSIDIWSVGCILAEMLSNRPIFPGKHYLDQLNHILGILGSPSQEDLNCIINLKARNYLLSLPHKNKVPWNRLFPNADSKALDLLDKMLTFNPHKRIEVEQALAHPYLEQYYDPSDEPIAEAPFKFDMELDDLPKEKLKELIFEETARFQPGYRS

MAPK12 (human) = MAPK12 (human) (UniProt P53778)
Sequence of MAPK12 (human) (P53778 whole entry, looked up): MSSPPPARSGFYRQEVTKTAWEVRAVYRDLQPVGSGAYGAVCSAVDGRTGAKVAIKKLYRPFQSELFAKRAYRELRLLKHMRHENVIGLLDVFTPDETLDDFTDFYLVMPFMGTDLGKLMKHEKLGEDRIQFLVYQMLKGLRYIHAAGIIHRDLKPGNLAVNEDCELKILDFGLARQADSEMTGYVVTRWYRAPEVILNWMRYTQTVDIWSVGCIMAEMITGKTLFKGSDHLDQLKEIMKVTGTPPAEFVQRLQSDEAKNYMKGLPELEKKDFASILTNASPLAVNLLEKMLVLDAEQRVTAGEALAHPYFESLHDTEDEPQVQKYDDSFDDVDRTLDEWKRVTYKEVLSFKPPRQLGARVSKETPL

MAPK14 (human) = MAPK14 (human) (UniProt Q16539)
Sequence of MAPK14 (human) (Q16539 whole entry, looked up): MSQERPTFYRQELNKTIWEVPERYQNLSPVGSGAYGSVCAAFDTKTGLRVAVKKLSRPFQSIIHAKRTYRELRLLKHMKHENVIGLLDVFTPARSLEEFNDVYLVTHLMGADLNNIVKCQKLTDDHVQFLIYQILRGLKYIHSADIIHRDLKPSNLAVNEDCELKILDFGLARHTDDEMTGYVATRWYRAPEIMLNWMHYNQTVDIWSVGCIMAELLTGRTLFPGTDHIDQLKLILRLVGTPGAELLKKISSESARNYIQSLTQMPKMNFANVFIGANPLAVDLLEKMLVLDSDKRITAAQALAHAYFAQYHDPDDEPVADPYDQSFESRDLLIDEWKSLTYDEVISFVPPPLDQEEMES

MAPK10 (human) = MAPK10 (human) (UniProt P53779)
AURKA (human) = AURKA (human) (UniProt O14965)
NEK2 (human) = NEK2 (human) (UniProt P51955)
RIPK2 (human) = RIPK2 (human) (UniProt O43353)
Sequence of RIPK2 (human) (O43353 whole entry, looked up): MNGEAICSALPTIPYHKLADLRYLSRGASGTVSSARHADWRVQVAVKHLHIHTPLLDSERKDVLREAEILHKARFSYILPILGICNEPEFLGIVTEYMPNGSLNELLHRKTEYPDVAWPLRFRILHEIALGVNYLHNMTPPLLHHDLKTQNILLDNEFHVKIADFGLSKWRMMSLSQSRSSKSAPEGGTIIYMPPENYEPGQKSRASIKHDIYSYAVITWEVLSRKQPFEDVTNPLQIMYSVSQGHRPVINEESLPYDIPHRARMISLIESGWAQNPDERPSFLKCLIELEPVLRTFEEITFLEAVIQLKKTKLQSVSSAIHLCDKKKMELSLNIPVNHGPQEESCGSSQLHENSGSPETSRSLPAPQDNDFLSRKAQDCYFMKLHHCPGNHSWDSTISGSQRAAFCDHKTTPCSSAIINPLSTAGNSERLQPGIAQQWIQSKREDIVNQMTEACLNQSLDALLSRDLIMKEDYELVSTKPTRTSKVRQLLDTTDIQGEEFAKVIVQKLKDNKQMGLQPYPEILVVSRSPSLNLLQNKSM

HIPK2 (human) = HIPK2 (human) (UniProt Q9H2X6)
MAPKAPK2 (human) = MAPKAPK2 (human) (UniProt P49137)
PIM3 (human) = PIM3 (human) (UniProt Q86V86)
MAPK9 (human) = MAPK9 (human) (UniProt P45984)
INSR (human) = INSR (human) (UniProt P06213)
MAPK8 (human) = MAPK8 (human) (UniProt P45983)
MAPKAPK3 (human) = MAPKAPK3 (human) (UniProt Q16644)
FGFR1 (human) = FGFR1 (human) (UniProt P11362)
DYRK1A (human) = DYRK1A (human) (UniProt Q13627)
[1] = test system: AKT2 (human), P31751 [S474D]
Sequence of AKT2 (human), P31751 [S474D] (P31751 whole entry S474D, looked up): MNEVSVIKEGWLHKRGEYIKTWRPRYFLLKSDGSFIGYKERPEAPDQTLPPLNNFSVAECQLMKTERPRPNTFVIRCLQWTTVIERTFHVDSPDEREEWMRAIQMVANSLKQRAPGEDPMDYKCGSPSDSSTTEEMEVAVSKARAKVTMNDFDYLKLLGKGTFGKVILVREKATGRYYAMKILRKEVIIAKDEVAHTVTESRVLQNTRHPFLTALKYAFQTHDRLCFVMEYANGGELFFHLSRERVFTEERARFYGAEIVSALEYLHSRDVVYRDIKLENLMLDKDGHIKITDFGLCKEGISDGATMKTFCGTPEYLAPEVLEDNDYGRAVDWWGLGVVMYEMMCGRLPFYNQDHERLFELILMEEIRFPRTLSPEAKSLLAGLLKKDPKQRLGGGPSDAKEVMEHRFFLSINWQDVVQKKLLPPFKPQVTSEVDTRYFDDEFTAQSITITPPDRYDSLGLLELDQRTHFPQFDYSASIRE

NUAK1 (human) = NUAK1 (human) (UniProt O60285)
CHEK2 (human) = CHEK2 (human) (UniProt O96017)
Sequence of CHEK2 (human) (O96017 whole entry, looked up): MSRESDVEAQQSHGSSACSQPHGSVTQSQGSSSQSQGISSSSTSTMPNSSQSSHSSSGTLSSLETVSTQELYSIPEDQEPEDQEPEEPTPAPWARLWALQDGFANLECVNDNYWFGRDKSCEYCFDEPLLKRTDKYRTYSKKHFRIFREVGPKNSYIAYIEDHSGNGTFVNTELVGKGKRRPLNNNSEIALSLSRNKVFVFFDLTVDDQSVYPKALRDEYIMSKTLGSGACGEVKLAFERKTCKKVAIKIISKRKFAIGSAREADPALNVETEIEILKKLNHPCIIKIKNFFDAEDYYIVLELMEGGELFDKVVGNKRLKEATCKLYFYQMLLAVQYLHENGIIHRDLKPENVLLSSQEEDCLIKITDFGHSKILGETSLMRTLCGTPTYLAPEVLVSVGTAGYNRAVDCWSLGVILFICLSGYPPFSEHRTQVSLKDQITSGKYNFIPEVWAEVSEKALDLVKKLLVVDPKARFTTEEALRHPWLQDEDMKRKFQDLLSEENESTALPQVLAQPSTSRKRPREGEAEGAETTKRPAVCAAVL

FLT1 (human) = FLT1 (human) (UniProt P17948)
MAPK11 (human) = MAPK11 (human) (UniProt Q15759)
AURKB (human) = AURKB (human) (UniProt Q96GD4)
DYRK2 (human) = DYRK2 (human) (UniProt Q92630)
MAPK3 (human) = MAPK3 (human) (UniProt P27361)
MAP3K9 (human) = MAP3K9 (human) (UniProt P80192)
TTK (human) = TTK (human) (UniProt P33981)
PLK1 (human) = PLK1 (human) (UniProt P53350)
DYRK3 (human) = DYRK3 (human) (UniProt O43781)
PIM1 (human) = PIM1 (human) (UniProt P11309)
CLK2 (human) = CLK2 (human) (UniProt P49760)
MINK1 (human) = MINK1 (human) (UniProt Q8N4C8)
MAP3K11 (human) = MAP3K11 (human) (UniProt Q16584)
Sequence of MAP3K11 (human) (Q16584 whole entry, looked up): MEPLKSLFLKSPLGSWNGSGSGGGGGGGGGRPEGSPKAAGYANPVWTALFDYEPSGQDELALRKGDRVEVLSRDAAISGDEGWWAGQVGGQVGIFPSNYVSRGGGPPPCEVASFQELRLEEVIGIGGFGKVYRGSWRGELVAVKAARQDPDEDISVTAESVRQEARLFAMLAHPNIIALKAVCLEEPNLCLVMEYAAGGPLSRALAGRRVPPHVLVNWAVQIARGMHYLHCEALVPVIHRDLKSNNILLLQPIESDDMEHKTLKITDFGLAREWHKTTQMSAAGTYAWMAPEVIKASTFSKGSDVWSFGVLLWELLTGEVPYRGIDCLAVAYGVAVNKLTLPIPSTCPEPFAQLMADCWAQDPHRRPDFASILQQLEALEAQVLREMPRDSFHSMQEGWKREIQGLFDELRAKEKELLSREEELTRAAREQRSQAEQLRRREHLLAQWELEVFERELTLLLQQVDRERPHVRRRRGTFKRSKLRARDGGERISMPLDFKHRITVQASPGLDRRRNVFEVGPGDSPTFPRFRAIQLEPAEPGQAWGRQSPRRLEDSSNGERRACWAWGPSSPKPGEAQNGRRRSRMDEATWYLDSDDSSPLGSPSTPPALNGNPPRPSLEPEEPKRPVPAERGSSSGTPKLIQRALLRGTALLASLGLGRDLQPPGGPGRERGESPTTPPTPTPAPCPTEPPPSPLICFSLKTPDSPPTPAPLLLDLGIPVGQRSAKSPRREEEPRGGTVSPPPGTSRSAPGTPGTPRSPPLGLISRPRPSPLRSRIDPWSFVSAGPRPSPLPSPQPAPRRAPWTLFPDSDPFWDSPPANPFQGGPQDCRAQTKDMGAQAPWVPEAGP

RPS6KA3 KD1 KD2 (human) = RPS6KA3 KD1 KD2 (human) (UniProt P51812)
Sequence of RPS6KA3 KD1 KD2 (human) (P51812 whole entry, looked up): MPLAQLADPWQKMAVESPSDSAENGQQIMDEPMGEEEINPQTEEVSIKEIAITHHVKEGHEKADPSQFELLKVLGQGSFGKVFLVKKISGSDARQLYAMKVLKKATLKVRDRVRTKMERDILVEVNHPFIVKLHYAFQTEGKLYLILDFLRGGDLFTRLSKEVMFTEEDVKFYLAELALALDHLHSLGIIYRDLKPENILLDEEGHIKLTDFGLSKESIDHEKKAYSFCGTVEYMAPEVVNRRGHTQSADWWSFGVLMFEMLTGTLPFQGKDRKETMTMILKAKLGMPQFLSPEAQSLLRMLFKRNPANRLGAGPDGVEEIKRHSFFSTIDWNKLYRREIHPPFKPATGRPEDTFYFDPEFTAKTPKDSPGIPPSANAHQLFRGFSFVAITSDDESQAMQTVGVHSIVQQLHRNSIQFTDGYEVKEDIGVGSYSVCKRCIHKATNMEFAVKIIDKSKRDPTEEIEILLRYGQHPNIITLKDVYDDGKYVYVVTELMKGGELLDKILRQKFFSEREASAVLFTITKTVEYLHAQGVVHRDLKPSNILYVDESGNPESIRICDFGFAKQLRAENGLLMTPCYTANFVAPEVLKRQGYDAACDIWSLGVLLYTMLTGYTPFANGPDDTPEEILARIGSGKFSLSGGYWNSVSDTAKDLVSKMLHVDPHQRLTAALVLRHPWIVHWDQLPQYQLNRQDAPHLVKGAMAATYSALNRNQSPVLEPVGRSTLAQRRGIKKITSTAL

Sequence of MAPK13 (human) (O15264 whole entry, looked up): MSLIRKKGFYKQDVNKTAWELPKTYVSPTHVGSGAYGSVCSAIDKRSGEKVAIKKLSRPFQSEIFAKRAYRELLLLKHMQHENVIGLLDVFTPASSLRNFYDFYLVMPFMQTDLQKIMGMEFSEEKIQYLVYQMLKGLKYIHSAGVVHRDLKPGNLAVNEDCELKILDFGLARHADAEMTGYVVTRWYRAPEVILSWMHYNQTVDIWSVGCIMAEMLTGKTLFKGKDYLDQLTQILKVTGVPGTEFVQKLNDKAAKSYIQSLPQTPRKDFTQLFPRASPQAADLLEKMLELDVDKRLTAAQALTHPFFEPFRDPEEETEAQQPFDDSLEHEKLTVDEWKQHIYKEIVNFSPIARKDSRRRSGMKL
Sequence of CaMK1 (human) (Q14012 whole entry, looked up): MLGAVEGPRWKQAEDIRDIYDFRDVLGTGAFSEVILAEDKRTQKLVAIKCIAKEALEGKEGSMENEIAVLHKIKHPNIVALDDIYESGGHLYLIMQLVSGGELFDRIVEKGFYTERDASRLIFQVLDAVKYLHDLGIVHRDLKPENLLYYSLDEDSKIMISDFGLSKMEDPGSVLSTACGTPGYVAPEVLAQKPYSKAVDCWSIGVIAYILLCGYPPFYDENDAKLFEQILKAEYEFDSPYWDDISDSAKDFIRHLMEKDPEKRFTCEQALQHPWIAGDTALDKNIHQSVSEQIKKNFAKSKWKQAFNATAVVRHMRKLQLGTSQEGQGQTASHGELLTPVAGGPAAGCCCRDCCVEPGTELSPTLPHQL

residual activity (MAPK13 (human)): 65%
residual activity (MARK2 (human)): 66%
residual activity (IKBKE (human)): 9%
residual activity (CaMK1 (human)): 3%
residual activity (GSK3B (human)): 78%
residual activity (ERBB4 (human)): 19%
residual activity (INSRR (human)): 26%
residual activity (BTK (human)): 21%
residual activity (MAPK1 (human)): 73%
residual activity (MAPK12 (human)): 60%
residual activity (MAPK14 (human)): 36%
residual activity (MAPK10 (human)): 80%
residual activity (AURKA (human)): 7%
residual activity (NEK2 (human)): 19%
residual activity (RIPK2 (human)): 23%
residual activity (HIPK2 (human)): 7%
residual activity (MAPKAPK2 (human)): 8%
residual activity (PIM3 (human)): 6%
residual activity (MAPK9 (human)): 88%
residual activity (INSR (human)): 99%
residual activity (MAPK8 (human)): 83%
residual activity (MAPKAPK3 (human)): 8%
residual activity (FGFR1 (human)): 29%
residual activity (DYRK1A (human)): 18%
residual activity [1]: 8%
residual activity (NUAK1 (human)): 14%
residual activity (CHEK2 (human)): 41%
residual activity (FLT1 (human)): 12%
residual activity (MAPK11 (human)): 69%
residual activity (AURKB (human)): 5%
residual activity (DYRK2 (human)): 23%
residual activity (MAPK3 (human)): 19%
residual activity (MAP3K9 (human)): 4%
residual activity (TTK (human)): 44%
residual activity (PLK1 (human)): 90%
residual activity (DYRK3 (human)): 23%
residual activity (PIM1 (human)): 13%
residual activity (CLK2 (human)): 18%
residual activity (MINK1 (human)): 2%
residual activity (MAP3K11 (human)): 5%
residual activity (RPS6KA3 KD1 KD2 (human)): 11%
SMILES: Cc1cccc(Nc2nc(-c3sc(N)nc3C)cs2)n1
